Common to all, as to test: NCI tumour cell line growth inhibition, 48 h
Assay [1] relates to ACHN.
For assay [2], the system named is CAKI-1.
Assay [3] concerns COLO 205.
Assay [4] concerns EKVX.
Assay [5] deals with Hs-578T.
For assay [6], the system named is IGROV-1.
The test system of assay [7] is K562.
In assay [8] the test system is LOX IMVI.
Assay [9] deals with MOLT-4.
Assay [10] deals with Malme-3M.
Assay [11] relates to NCI/ADR-RES.
Assay [12] has as its system PC-3.
In assay [13] the test system is RPMI-8226.
In assay [14] the test system is SF-539.
The test system of assay [15] is SK-MEL-28.
The subject of assay [16] is SK-MEL-2.
Assay [17] deals with SK-OV-3.
The test system of assay [18] is SNB-19.
For assay [19], the system named is SW-620.
Assay [20] concerns TK-10.

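Cells were grown in 96-well plates and exposed to each compound for 48 hours at five concentrations; endpoints were interpolated linearly between bracketing concentrations, or set to the highest concentration if not reached. GI50 = concentration required for 50% inhibition of growth.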 The source made the active and inactive calls. Cut-off read from the data, not from the text of the source: active = GI50 up to about 1.1 µM and inactive = higher.

Take `Cc1n[nH]c(=O)n1-n1cccc1`: the GI50 in [1], in assay [2], in [3], in [4], in assay [5] and in assay [6] was > 100 µM (inactive) throughout. The GI50 in assay [7], in [8], in assay [9], in assay [10], in [11] and in assay [12] was > 100 µM (inactive) throughout. Also, the GI50 in assay [13], in assay [14], in assay [15], in assay [16], in assay [17] and in assay [18] was > 100 µM (inactive) each time. Further, the GI50 in assay [19] and in assay [20] was > 100 µM (inactive) in each case.
`O=C(O)CC12CC3CC(CC(O)(C3)C1)C2`: the GI50 in assay [1] was > 100 µM (inactive); in [2], > 100 µM (inactive); in [3] it was > 100 µM (inactive); in assay [4], > 100 µM (inactive); in assay [5], 27.5 µM (inactive); in assay [6] it was > 100 µM (inactive). Further, the GI50 is > 100 µM (inactive) in assay [7]; > 100 µM (inactive) in [8]; 34.7 µM (inactive) in assay [10]; > 100 µM (inactive) in assay [11]; > 100 µM (inactive) in [12]; > 100 µM (inactive) in [13]. The GI50 in assay [14], in assay [15], in assay [16], in assay [17], in [18] and in assay [19] was > 100 µM (inactive) in each case. In addition, the GI50 in [20] is > 100 µM (inactive).
On to `CC1N=C(c2ccccc2)OC1=O` (centres undefined), for which the GI50 in assay [1], in assay [2], in assay [3], in [4], in [5] and in assay [6] was > 100 µM (inactive) each time. In addition, the GI50 in assay [7], in assay [8], in assay [9], in assay [10], in assay [11] and in [12] was > 100 µM (inactive) in each case. Moreover, the GI50 in [13], in assay [14], in [15], in assay [16], in assay [17] and in assay [18] was > 100 µM (inactive) throughout. In addition, the GI50 in [19] and in [20] was > 100 µM (inactive) throughout.
As to `c1c[nH]c(CN2CCN(Cc3ncc[nH]3)CC2)n1`, the GI50 in assay [1] is > 100 µM (inactive); in [2], > 100 µM (inactive); in assay [3], > 100 µM (inactive); in assay [4], 52.2 µM (inactive); in [5] it was > 100 µM (inactive); in assay [6], > 100 µM (inactive). In addition, the GI50 in assay [8], in assay [9], in assay [10], in [11], in assay [12] and in assay [13] was > 100 µM (inactive) each time. Besides, the GI50 in assay [14], in assay [15], in assay [16], in [17], in [18] and in assay [19] was > 100 µM (inactive) throughout. Further, the GI50 in [20] was > 100 µM (inactive).
In the case of `COC1(OC)C=CC2C1C1C=CC2C1(OC)OC` (centres undefined), the GI50 in assay [1], in [2], in assay [3], in assay [4], in assay [5] and in assay [6] was > 100 µM (inactive) in each case. Further, the GI50 in assay [7], in [8], in [9], in assay [10], in assay [11] and in assay [12] was > 100 µM (inactive) throughout. Also, the GI50 in assay [13], in assay [14], in assay [15], in assay [16], in assay [17] and in assay [18] was > 100 µM (inactive) each time. In addition, the GI50 in [19] and in assay [20] was > 100 µM (inactive) in each case.
Turning to `CCOC(=O)NC(Nc1ccc(F)c(F)c1)(C(=O)OCC)C(F)(F)F` (centres undefined), the GI50 was 27 µM (inactive) in assay [1]; > 100 µM (inactive) in assay [2]; > 60.4 µM (inactive) in [3]; > 100 µM (inactive) in assay [4]; > 25.9 µM (inactive) in assay [5]; > 28.1 µM (inactive) in assay [6]. Moreover, the GI50 was 17.8 µM (inactive) in [7]; 0.361 µM (active) in assay [8]; > 100 µM (inactive) in assay [9]; > 100 µM (inactive) in assay [10]; > 68.5 µM (inactive) in [11]; > 80.5 µM (inactive) in assay [12]. The GI50 in assay [13] is > 100 µM (inactive); in [14] it was > 100 µM (inactive); in assay [15], > 100 µM (inactive); in [16], 17.5 µM (inactive); in assay [17], > 100 µM (inactive); in assay [18], > 100 µM (inactive). Moreover, the GI50 in assay [19] is 17.4 µM (inactive); in assay [20] it was > 100 µM (inactive).
For the molecule `CN(Cc1c2ccccc2cc2ccccc12)S(=O)(=O)c1ccc(-c2c3nc(c(-c4ccc(S(=O)(=O)N(C)Cc5c6ccccc6cc6ccccc56)cc4)c4ccc([nH]4)c(-c4ccc(S(=O)(=O)N(C)Cc5c6ccccc6cc6ccccc56)cc4)c4nc(c(-c5ccc(S(=O)(=O)N(C)Cc6c7ccccc7cc7ccccc67)cc5)c5ccc2[nH]5)C=C4)C=C3)cc1`, the GI50 in assay [1] was > 100 µM (inactive); in [2], > 100 µM (inactive); in assay [3], > 100 µM (inactive); in assay [4] it was > 100 µM (inactive); in assay [5], 57.8 µM (inactive); in assay [6], > 100 µM (inactive). Besides, the GI50 in [7], in assay [8], in assay [9], in [10], in [11] and in assay [12] was > 100 µM (inactive) each time. Besides, the GI50 was > 100 µM (inactive) in [13]; 99.1 µM (inactive) in assay [14]; > 100 µM (inactive) in assay [15]; > 100 µM (inactive) in assay [16]; > 100 µM (inactive) in assay [17]; 44 µM (inactive) in assay [18]. For the same molecule, the GI50 in assay [19] and in assay [20] was > 100 µM (inactive) each time.
In the case of `CC(C)(C)OC(=O)n1c2ccccc2c2c(=O)nc(N3CCCCC3)sc21`, the GI50 in assay [1], in assay [2], in [3], in [4], in assay [5] and in assay [6] was > 100 µM (inactive) throughout. Further, the GI50 in assay [7], in assay [8], in assay [9], in assay [10], in assay [11] and in assay [12] was > 100 µM (inactive) in each case. Besides, the GI50 in assay [13], in assay [14], in assay [15], in assay [16], in [17] and in [18] was > 100 µM (inactive) each time. Moreover, the GI50 in [19] and in assay [20] was > 100 µM (inactive) in each case.
For `COc1ccc2c(c1)c1c(n2CCN2CCOCC2)-c2cccc(OC)c2CC1`, the GI50 is 37 µM (inactive) in assay [1]; > 100 µM (inactive) in assay [2]; 15.2 µM (inactive) in assay [3]; 35 µM (inactive) in [5]; 43.1 µM (inactive) in [6]; 17.3 µM (inactive) in assay [7]. The GI50 in [9] is 23.2 µM (inactive); in [10], 16.9 µM (inactive); in assay [11], 43.6 µM (inactive); in assay [12], 23.7 µM (inactive); in assay [13] it was 16.9 µM (inactive); in [14], 33.3 µM (inactive). In addition, the GI50 in assay [15] is 54.1 µM (inactive); in assay [16], 22.3 µM (inactive); in [17], > 100 µM (inactive); in [19], 36.8 µM (inactive); in assay [20], 44.6 µM (inactive).
For the molecule `CN(C)CCOC1(Cc2ccc(Cl)cc2Cl)CCC(C(C)(C)C)CC1` (centres undefined), the GI50 was 2.99 µM (inactive) in assay [1]; 2.25 µM (inactive) in assay [2]; 1.62 µM (inactive) in assay [3]; 1.97 µM (inactive) in [5]; 3.44 µM (inactive) in assay [6]; 1.6 µM (inactive) in [7]. The GI50 was 1.44 µM (inactive) in assay [8]; 1.86 µM (inactive) in assay [9]; 2.25 µM (inactive) in [10]; 2.3 µM (inactive) in assay [11]; 1.48 µM (inactive) in [12]; 2.16 µM (inactive) in assay [13]. The GI50 in [14] was 4.36 µM (inactive); in [15], 1.65 µM (inactive); in assay [16], 1.72 µM (inactive); in assay [17], 2.25 µM (inactive); in assay [18] it was 1.75 µM (inactive); in assay [19] it was 1.51 µM (inactive). In addition, in assay [20], the GI50 is 2.62 µM (inactive).

(Values after ChEMBL document CHEMBL1201862, “PubChem BioAssay data set” (2004).)
